Reference: ChEMBL document CHEMBL1201862, “PubChem BioAssay data set” (2004)
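Each compound was tested at five concentrations against cells in 96-well plates for 48 hours. GI50 marks 50% less growth.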 Activity calls are given as the source filed them. No stated cut-off is given here; in the data, active = GI50 up to about 1.1 µM and inactive = higher.

Key:
Experiment in all cases: DTP human tumour cell line panel, 48 h
SNB-19 = test system: SNB-19
NCI-H460 = test system: NCI-H460
CAKI-1 = test system: CAKI-1
IGROV-1 = test system: IGROV-1
MDA-MB-435 = test system: MDA-MB-435
Malme-3M = test system: Malme-3M
NCI-H226 = test system: NCI-H226
HT-29 = test system: HT-29
UACC-62 = test system: UACC-62
HCT-116 = test system: HCT-116
MDA-N = test system: MDA-N
NCI/ADR-RES = test system: NCI/ADR-RES
MDA-MB-231 = test system: MDA-MB-231
T47D = test system: T47D
SN12C = test system: SN12C
OVCAR-8 = test system: OVCAR-8
NCI-H522 = test system: NCI-H522
CCRF-CEM = test system: CCRF-CEM
M14 = test system: M14
ACHN = test system: ACHN
K562 = test system: K562
OVCAR-5 = test system: OVCAR-5
HCT-15 = test system: HCT-15
TK-10 = test system: TK-10
PC-3 = test system: PC-3
U-251 = test system: U-251
SK-OV-3 = test system: SK-OV-3
SF-295 = test system: SF-295
SNB-75 = test system: SNB-75
HOP-92 = test system: HOP-92
OVCAR-3 = test system: OVCAR-3
UO-31 = test system: UO-31
MOLT-4 = test system: MOLT-4
SK-MEL-5 = test system: SK-MEL-5
NCI-H23 = test system: NCI-H23
SK-MEL-28 = test system: SK-MEL-28
BT-549 = test system: BT-549
Hs-578T = test system: Hs-578T
HCC 2998 = test system: HCC 2998
HOP-62 = test system: HOP-62
SF-539 = test system: SF-539
SW-620 = test system: SW-620
UACC-257 = test system: UACC-257
EKVX = test system: EKVX
786-0 = test system: 786-0
RXF 393 = test system: RXF 393
OVCAR-4 = test system: OVCAR-4
SR = test system: SR
KM12 = test system: KM12
A549 = test system: A549
LOX IMVI = test system: LOX IMVI
MCF7 = test system: MCF7
COLO 205 = test system: COLO 205
SF-268 = test system: SF-268
SK-MEL-2 = test system: SK-MEL-2
DU-145 = test system: DU-145
RPMI-8226 = test system: RPMI-8226
HL-60 = test system: HL-60
A498 = test system: A498

Cn1c(S)nnc1-c1csc(-c2ccc(Cl)cc2)n1
GI50 (SNB-19): 17.5 µM (inactive)
GI50 (NCI-H460): 21.3 µM (inactive)
GI50 (CAKI-1): 23.4 µM (inactive)
GI50 (IGROV-1): 16 µM (inactive)
GI50 (MDA-MB-435): > 100 µM (inactive)
GI50 (Malme-3M): 30.3 µM (inactive)
GI50 (NCI-H226): 23.1 µM (inactive)
GI50 (HT-29): > 100 µM (inactive)
GI50 (UACC-62): 23.9 µM (inactive)
GI50 (HCT-116): 17.7 µM (inactive)
GI50 (MDA-N): 61 µM (inactive)
GI50 (NCI/ADR-RES): 25.2 µM (inactive)
GI50 (MDA-MB-231): 24 µM (inactive)
GI50 (T47D): 35.3 µM (inactive)
GI50 (SN12C): 38.8 µM (inactive)
GI50 (OVCAR-8): 21.8 µM (inactive)
GI50 (NCI-H522): 19.4 µM (inactive)
GI50 (CCRF-CEM): > 100 µM (inactive)
GI50 (M14): 33.1 µM (inactive)
GI50 (ACHN): 18.7 µM (inactive)
GI50 (K562): > 100 µM (inactive)
GI50 (OVCAR-5): 34.4 µM (inactive)
GI50 (HCT-15): 53.8 µM
GI50 (TK-10): 20.4 µM (inactive)
GI50 (PC-3): 35.7 µM (inactive)
GI50 (U-251): > 10 µM (inactive)
GI50 (SK-OV-3): 17.6 µM (inactive)
GI50 (SF-295): 15.6 µM (inactive)
GI50 (SNB-75): 18.7 µM (inactive)
GI50 (HOP-92): 12 µM (inactive)
GI50 (OVCAR-3): 19.1 µM (inactive)
GI50 (UO-31): 22.5 µM (inactive)
GI50 (MOLT-4): 55.8 µM (inactive)
GI50 (SK-MEL-5): > 100 µM (inactive)
GI50 (NCI-H23): 15 µM (inactive)
GI50 (SK-MEL-28): 44.6 µM (inactive)
GI50 (BT-549): 22.1 µM (inactive)
GI50 (Hs-578T): 29.7 µM (inactive)
GI50 (HCC 2998): > 100 µM (inactive)
GI50 (HOP-62): 15.4 µM (inactive)
GI50 (SF-539): 22.2 µM (inactive)
GI50 (SW-620): 32.6 µM (inactive)
GI50 (UACC-257): > 100 µM (inactive)
GI50 (EKVX): 30.7 µM (inactive)
GI50 (786-0): 17 µM (inactive)
GI50 (RXF 393): 19 µM (inactive)
GI50 (OVCAR-4): 26.1 µM (inactive)
GI50 (SR): > 100 µM (inactive)
GI50 (KM12): > 100 µM (inactive)
GI50 (A549): 32.6 µM (inactive)
GI50 (LOX IMVI): 21.7 µM (inactive)
GI50 (MCF7): 37.2 µM (inactive)
GI50 (COLO 205): > 100 µM (inactive)
GI50 (SF-268): 29.3 µM (inactive)

CCC(=O)Nc1ccc(NCC(=O)Nc2ccc(OC)cc2)cc1
GI50 (SK-MEL-2): 18.4 µM (inactive)
GI50 (SNB-19): 13.2 µM (inactive)
GI50 (CAKI-1): 13.5 µM (inactive)
GI50 (IGROV-1): 25.8 µM (inactive)
GI50 (MDA-MB-435): 30.5 µM (inactive)
GI50 (Malme-3M): 21.6 µM (inactive)
GI50 (NCI-H226): 12.4 µM (inactive)
GI50 (HT-29): 20.9 µM (inactive)
GI50 (DU-145): 31.8 µM (inactive)
GI50 (UACC-62): 19.1 µM (inactive)
GI50 (HCT-116): 26.1 µM (inactive)
GI50 (MDA-N): 29.8 µM (inactive)
GI50 (NCI/ADR-RES): 28.1 µM (inactive)
GI50 (T47D): 21.1 µM (inactive)
GI50 (SN12C): 18.1 µM (inactive)
GI50 (OVCAR-8): 19.7 µM (inactive)
GI50 (NCI-H522): 15.2 µM (inactive)
GI50 (CCRF-CEM): 25.4 µM (inactive)
GI50 (M14): 49.3 µM (inactive)
GI50 (ACHN): 40.5 µM (inactive)
GI50 (K562): 35.6 µM (inactive)
GI50 (OVCAR-5): 17.4 µM (inactive)
GI50 (HCT-15): 32.8 µM
GI50 (PC-3): 26.2 µM (inactive)
GI50 (SK-OV-3): 8.67 µM (inactive)
GI50 (SF-295): 46.7 µM (inactive)
GI50 (SNB-75): 13.7 µM (inactive)
GI50 (RPMI-8226): 32.9 µM (inactive)
GI50 (HOP-92): 23.8 µM (inactive)
GI50 (OVCAR-3): 25.2 µM (inactive)
GI50 (UO-31): 45.5 µM (inactive)
GI50 (MOLT-4): 39 µM (inactive)
GI50 (SK-MEL-5): 17.5 µM (inactive)
GI50 (NCI-H23): 19.9 µM (inactive)
GI50 (HL-60): 28.2 µM (inactive)
GI50 (SK-MEL-28): 49.1 µM (inactive)
GI50 (BT-549): 23.2 µM (inactive)
GI50 (Hs-578T): 30.3 µM (inactive)
GI50 (HCC 2998): 6.76 µM (inactive)
GI50 (HOP-62): 2.99 µM (inactive)
GI50 (SF-539): 17.5 µM (inactive)
GI50 (SW-620): 35.2 µM (inactive)
GI50 (UACC-257): 7.8 µM (inactive)
GI50 (EKVX): 16.7 µM (inactive)
GI50 (786-0): 20.3 µM (inactive)
GI50 (A498): 27.7 µM (inactive)
GI50 (RXF 393): 16.4 µM (inactive)
GI50 (OVCAR-4): 13.2 µM (inactive)
GI50 (SR): 31.8 µM (inactive)
GI50 (KM12): 17.4 µM (inactive)
GI50 (A549): 54 µM (inactive)
GI50 (LOX IMVI): 16.6 µM (inactive)
GI50 (MCF7): 17.1 µM (inactive)
GI50 (COLO 205): 31.8 µM (inactive)
GI50 (SF-268): 17.7 µM (inactive)

COc1ccc(O)c(/C(C)=N/NC(=S)N(C)C)c1
GI50 (SK-MEL-2): > 43.2 µM (inactive)
GI50 (SNB-19): 40.5 µM (inactive)
GI50 (NCI-H460): 15.6 µM (inactive)
GI50 (CAKI-1): 16.7 µM (inactive)
GI50 (IGROV-1): 14.3 µM (inactive)
GI50 (MDA-MB-435): 57.7 µM (inactive)
GI50 (Malme-3M): 71 µM (inactive)
GI50 (NCI-H226): 16.1 µM (inactive)
GI50 (HT-29): 0.0306 µM (active)
GI50 (DU-145): 44 µM (inactive)
GI50 (UACC-62): 26.1 µM (inactive)
GI50 (HCT-116): 19.6 µM (inactive)
GI50 (MDA-N): > 73.3 µM (inactive)
GI50 (NCI/ADR-RES): 18 µM (inactive)
GI50 (MDA-MB-231): > 20.6 µM (inactive)
GI50 (T47D): 40.9 µM (inactive)
GI50 (SN12C): > 44.2 µM (inactive)
GI50 (OVCAR-8): 33.4 µM (inactive)
GI50 (NCI-H522): 1.33 µM (inactive)
GI50 (CCRF-CEM): 8.93 µM (inactive)
GI50 (M14): 11.8 µM (inactive)
GI50 (ACHN): 13.5 µM (inactive)
GI50 (K562): 60.1 µM (inactive)
GI50 (OVCAR-5): > 61.9 µM (inactive)
GI50 (HCT-15): 5.12 µM
GI50 (PC-3): > 36.4 µM (inactive)
GI50 (U-251): > 36.6 µM (inactive)
GI50 (SK-OV-3): 42.3 µM (inactive)
GI50 (SF-295): 31.3 µM (inactive)
GI50 (SNB-75): 75.5 µM (inactive)
GI50 (RPMI-8226): 47.4 µM (inactive)
GI50 (HOP-92): > 100 µM (inactive)
GI50 (OVCAR-3): 37.3 µM (inactive)
GI50 (UO-31): 17.7 µM (inactive)
GI50 (MOLT-4): 36.5 µM (inactive)
GI50 (SK-MEL-5): 9.18 µM (inactive)
GI50 (NCI-H23): 24.7 µM (inactive)
GI50 (HL-60): 56 µM (inactive)
GI50 (SK-MEL-28): 35.7 µM (inactive)
GI50 (BT-549): 36 µM (inactive)
GI50 (Hs-578T): > 100 µM (inactive)
GI50 (HCC 2998): > 61.9 µM (inactive)
GI50 (HOP-62): 21.9 µM (inactive)
GI50 (SF-539): 64 µM (inactive)
GI50 (SW-620): 28.6 µM (inactive)
GI50 (UACC-257): 63.4 µM (inactive)
GI50 (EKVX): 31.9 µM (inactive)
GI50 (786-0): > 40.7 µM (inactive)
GI50 (A498): > 100 µM (inactive)
GI50 (RXF 393): > 100 µM (inactive)
GI50 (OVCAR-4): 2.63 µM (inactive)
GI50 (SR): 25.8 µM (inactive)
GI50 (KM12): 42 µM (inactive)
GI50 (A549): 23.4 µM (inactive)
GI50 (LOX IMVI): 4.48 µM (inactive)
GI50 (COLO 205): 21.3 µM (inactive)
GI50 (SF-268): 20.9 µM (inactive)
